Columns and labels:
Assay type in all cases: physicochemical
[1] = storage stability on aging, decomposition of the sulfonylurea measured by HPLC
Procedure: To 21.57 g 2-[[[[(4,6-dimethoxy-2-pyrimidinyl)amino]carbonyl]-amino]sulfonyl]-N,N-dimethyl-3-pyridinecarboxamide and 50 mL 1.0 N NaOH in 1400 mL methylene chloride was incrementally added 22.37 g of diisobutylphenoxy ethoxyethyl dimethylbenzyl ammonium chloride (Hyamine 1622, commercially available from Lonza), with several small methylene chloride washes to facilitate transfer. The reaction medium was filtered through a bed of molecular sieves to remove mineral salts and water. Methylene chloride was stripped to recover the white powder. Upon aging for 1 week at 54 C., 9% relative decomposition of the sulfonylurea resulted as measured by HPLC.
Into 7.8 g of epoxidized soybean oil (ESBO) was added with stirring: 1.18 g methyl 3-[[[[(4-methoxy-6-methyl-1,3,5-triazin-2-yl)amino]carbonyl]amino]sulfonyl]-2-thiophenecarboxylate tech (98.1%), 1.31 g of anhydrous diisobutylphenoxy ethoxyethyl dimethylbenzyl ammonium chloride […] (Hyamine 1622, available from Lonza), 0.11 g Ca(OH)2, and 0.03 g calcium acetate. The mixture was aged 3 weeks at 45° C. giving 0% relative decomposition of the sulfonylurea as measured by HPLC.
A solution on 15 g of methyl 2-[[[[(4-methoxy-6-methyl-1,3,5-triazin-2-yl)methylamino]carbonyl]amino]sulfonyl]benzoate tech (95.7%) and 18 g of Na2CO3 in 300 g of CH2Cl2 was treated with 1.5 g of NaOH and stirred 2 h. 8.65 g of benzyl triethyl ammonium chloride was added to the suspension and the mixture stirred overnight. The suspension was filtered and the filtrate stripped of solvent on a rotary evaporator yielding the corresponding sulfonylurea quaternary salt as a viscous yellow oil (15.7 g) using 1 g of the oil, a 20% solution of the quaternary salt was made in triethyl phosphate. Upon aging for 1 week at 54° C., 1% relative decomposition of the sulfonylurea resulted as indicated by HPLC.
A quaternary salt sulfonylurea was prepared using the procedure of Example 3 with 20 g methyl 2-[[[[(4-methoxy-6-methyl-1,3,5-triazin-2-yl)methylamino]carbonyl]-amino]sulfonyl]benzoate, 30 g Na2CO3, 400 g CH2Cl2, 2 g NaOH and 11.5 g benzyl triethyl ammonium chloride. One gram of the resulting orange viscous oil was made up as a 20% solution in triethyl phosphate. Upon aging for 1 week at 54° C., 2% relative decomposition of the sulfonylurea resulted as indicated by HPLC.
(§1) Tetradodecyl ammonium bromide was dissolved in 5 mL of CH2Cl2 and stirred with 3.3 mL of 1 N NaOH. To this was added 1.27 g of N-[[(4,6-dimethoxypyrimidine-2-yl)amino]carbonyl]-1-methyl-4-(2-methyl-2H-tetrazol-5-yl)-H-pyrazole-5-sulfonamide (97.8%) dissolved in 5 mL of CH2Cl2 and stirring continued for 5 min at 25° C. The organic phase was separated, washed with water, dried and the solvent removed tinder vacuum in a rotary evaporator at a maximum of 50° C. The resulting viscous, colorless oil gave an assay of 35% of the corresponding sulfonylurea quaternary salt (vs. 38% theory) using HPLC. This oil was more than-50% soluble in epoxidized soybean oil, methyl caprylate/caprate, and cottonseed oil. 50% solutions of the resultant sulfonylurea quaternary salt in these three solvents were aged 1 week at 54° C., giving 20-45% relative degradation by HPLC analysis.
In a vial was vortexed the following: 0.214 g methyl 2-[[[[[(4,6-dimethoxy-2-pyrimidinyl)amino]carbonyl]amino]sulfonyl]methyl]benzoate (98.3%), 0.192 g of a 25% aqueous solution of tetramethyl ammonium hydroxide, and 4.32 g of water to produce the sulfonylurea quaternary salt. Upon aging the solution at 54° C. for one week, 52% degradation of the sulfonylurea resulted as measured by HPLC.
(§2) Deionized water (5 g) was saturated with 2-[[[[(4,6-dimethoxy-2-pyrimidinyl)amino]carbonyl]amino]sulfonyl]-N,N-dimethyl-3-pyridinencarboxamide tech (500 ppm) and aged at 25° C. for 30 days.

[2] = solubility in organic solvents (epoxidized soybean oil, methyl caprylate/caprate, cottonseed oil)
Procedure: as §1

[3] = saturation of deionized water; settings: tech material
Procedure: as §2

[4] = 20% solution in triethyl phosphate, aging 1 week at 54° C., HPLC

Quaternary Salt of Methyl 2-[[[[(4-Methoxy-6-Methyl-1,3,5-Triazin-2-yl)Methylamino]carbonyl]amino]sulfonyl]benzoate [Example 4]
relative decomposition of the sulfonylurea [1, 4]: 2%

COC(=O)c1ccccc1CS(=O)(=O)[N-]C(=O)Nc1nc(OC)cc(OC)n1.C[N+](C)(C)C [B]
degradation of the sulfonylurea ([1]; aqueous solution, aging at 54° C. for one week, HPLC): 52%

COc1cc(OC)nc(NC(=O)NS(=O)(=O)c2c(-c3nnn(C)n3)cnn2C)n1 [N-[[(4,6-dimethoxypyrimidine-2-yl)amino]carbonyl]-1-methyl-4-(2-methyl-2H-tetrazol-5-yl)-1H-pyrazole-5-sulfonamide]
solubility (in words) ([2]; in epoxidized soybean oil, methyl caprylate/caprate, and cottonseed oil): practically insoluble

Quaternary Salt of Methyl 2-[[[[(4-Methoxy-6-Methyl-1,3,5-Triazin-0.2-yl)Methylamino]carbonyl]amino]sulfonyl]benzoate [Example 3]
relative decomposition of the sulfonylurea [1, 4]: 1%

Quaternary salt of 2-[[[[(4.6-Dimethoxy-2-Pyrimidinyl)amino]carbonyl]amino]sulfonyl]-N,N-Dimethyl-3-Pyridinecarboxamide [Example 1]
relative decomposition of the sulfonylurea ([1]; isolated white powder, aging 1 week at 54 C, HPLC): 9%

CCCCCCCCCCCC[N+](CCCCCCCCCCCC)(CCCCCCCCCCCC)CCCCCCCCCCCC.COc1cc(OC)nc(NC(=O)[N-]S(=O)(=O)c2c(-c3nnn(C)n3)cnn2C)n1 [A]
solubility [2]: > 50%
relative degradation [1]: 20-45%

COc1cc(OC)nc(NC(=O)NS(=O)(=O)c2ncccc2C(=O)N(C)C)n1 [C, 2-[[[[(4,6-dimethoxy-2-pyrimidinyl)amino]carbonyl]amino]sulfonyl]-N,N-dimethyl-3-pyridinencarboxamide]
concentration at saturation in deionized water [3]: 500 ppm

In situ Quaternary Salt of Methyl 3-[[[[(4-Methoxy-6-Methyl-1,3,5-Triazin-2-yl)Amino]carbonyl]amino]sulfonyl]-2-Thiophenecarboxylate [Example 2]
relative decomposition of the sulfonylurea ([1]; in situ mixture in epoxidized soybean oil with Ca(OH)2 and calcium acetate, aged 3 weeks at 45° C., HPLC): 0%

Reference: patent US20030022794A1, “Novel quaternary salts and their use in agricultural formulations” (priority 1997, published 2003)
